Broadly, the pIC50 is the IC50 on a negative log10 scale, so that one unit is a factor of ten.

pIC50: −log10 of the molar value.

Results on nine compounds are retold here after patent US20260217698A1 (BEYANG THERAPEUTICS CO., LTD., priority 2022, published 2026).

What all share (assay type): biochemical
The target in experiment [1] is T1, TIE2 (Homo sapiens, UniProt Q02763).
T1 construct: purchased BPS 40270
As to the kind of experiment: Kinase inhibition, Mobility Shift Assay/IMAP, TIE2. From the text:
(§1) This assay directly monitored the ability of compounds to inhibit kinase phosphorylation by measuring non-phosphorylated and phosphorylated substrates in kinase reactions by using Mobility Shift Assays/IMAP™ analysis.
(§2) Read the conversion ratio data on CaliperEZ Reader II. Convert conversion rates into inhibition ratio data.
(§3) “Min” indicates the readout of the control well without the addition of enzymes; and “Max” indicates the readout of the control well with the addition of DMSO Fit IC50 values with XL Fit excel add-in version […].
(§4) X indicates the log value of compound concentration, and Y indicates the inhibition ratio (% inhibition).

Experiment [2] deals with T2, EGFR (Homo sapiens, UniProt P00533).
T2 construct: purchased Carna 08-115
T2 sequence (P00533 669-1210 limits assumed): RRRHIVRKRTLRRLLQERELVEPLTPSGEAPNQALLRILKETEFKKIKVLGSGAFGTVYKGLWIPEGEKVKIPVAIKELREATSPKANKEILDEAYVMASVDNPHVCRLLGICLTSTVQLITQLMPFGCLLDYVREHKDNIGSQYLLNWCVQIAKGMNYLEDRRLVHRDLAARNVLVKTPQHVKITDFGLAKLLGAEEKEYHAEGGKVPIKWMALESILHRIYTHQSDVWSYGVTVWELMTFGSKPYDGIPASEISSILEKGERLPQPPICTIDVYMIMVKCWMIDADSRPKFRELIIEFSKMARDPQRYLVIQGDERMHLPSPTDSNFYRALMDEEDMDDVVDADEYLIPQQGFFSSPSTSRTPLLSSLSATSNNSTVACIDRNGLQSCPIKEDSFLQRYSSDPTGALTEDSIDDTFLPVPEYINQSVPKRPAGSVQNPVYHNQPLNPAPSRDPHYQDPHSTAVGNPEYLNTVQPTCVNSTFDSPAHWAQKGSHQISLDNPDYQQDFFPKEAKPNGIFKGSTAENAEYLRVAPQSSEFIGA
The experiment can be described thus: Kinase inhibition, Mobility Shift Assay/IMAP, EGFR.
Excerpt: as §1, §2, §3, §4

The target in experiment [3] is VEGFR2 (Homo sapiens, UniProt P35968). The experiment can be described thus: Kinase inhibition, Mobility Shift Assay/IMAP, VEGFR2. Also on record: purchased Carna 08-191.
Sequence of VEGFR2 (P35968 790-1356 limits assumed): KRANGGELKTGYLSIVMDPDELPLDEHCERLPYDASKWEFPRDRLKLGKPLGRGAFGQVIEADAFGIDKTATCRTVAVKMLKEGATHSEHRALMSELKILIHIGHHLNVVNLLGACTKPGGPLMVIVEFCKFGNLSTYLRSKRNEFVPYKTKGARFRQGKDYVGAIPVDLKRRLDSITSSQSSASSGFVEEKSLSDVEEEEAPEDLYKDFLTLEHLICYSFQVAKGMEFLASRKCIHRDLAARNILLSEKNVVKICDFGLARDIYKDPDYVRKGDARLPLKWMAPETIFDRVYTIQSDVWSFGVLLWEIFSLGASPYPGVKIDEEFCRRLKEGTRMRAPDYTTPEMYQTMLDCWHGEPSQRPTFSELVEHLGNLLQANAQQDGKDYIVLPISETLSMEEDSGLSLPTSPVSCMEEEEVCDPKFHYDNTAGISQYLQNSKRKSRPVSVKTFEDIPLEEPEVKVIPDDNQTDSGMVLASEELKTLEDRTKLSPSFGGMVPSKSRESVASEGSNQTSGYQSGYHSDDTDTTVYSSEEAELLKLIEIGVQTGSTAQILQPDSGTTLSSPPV
Excerpt: as §1, §2, §3, §4

T1 sequence (Q02763 23-1124): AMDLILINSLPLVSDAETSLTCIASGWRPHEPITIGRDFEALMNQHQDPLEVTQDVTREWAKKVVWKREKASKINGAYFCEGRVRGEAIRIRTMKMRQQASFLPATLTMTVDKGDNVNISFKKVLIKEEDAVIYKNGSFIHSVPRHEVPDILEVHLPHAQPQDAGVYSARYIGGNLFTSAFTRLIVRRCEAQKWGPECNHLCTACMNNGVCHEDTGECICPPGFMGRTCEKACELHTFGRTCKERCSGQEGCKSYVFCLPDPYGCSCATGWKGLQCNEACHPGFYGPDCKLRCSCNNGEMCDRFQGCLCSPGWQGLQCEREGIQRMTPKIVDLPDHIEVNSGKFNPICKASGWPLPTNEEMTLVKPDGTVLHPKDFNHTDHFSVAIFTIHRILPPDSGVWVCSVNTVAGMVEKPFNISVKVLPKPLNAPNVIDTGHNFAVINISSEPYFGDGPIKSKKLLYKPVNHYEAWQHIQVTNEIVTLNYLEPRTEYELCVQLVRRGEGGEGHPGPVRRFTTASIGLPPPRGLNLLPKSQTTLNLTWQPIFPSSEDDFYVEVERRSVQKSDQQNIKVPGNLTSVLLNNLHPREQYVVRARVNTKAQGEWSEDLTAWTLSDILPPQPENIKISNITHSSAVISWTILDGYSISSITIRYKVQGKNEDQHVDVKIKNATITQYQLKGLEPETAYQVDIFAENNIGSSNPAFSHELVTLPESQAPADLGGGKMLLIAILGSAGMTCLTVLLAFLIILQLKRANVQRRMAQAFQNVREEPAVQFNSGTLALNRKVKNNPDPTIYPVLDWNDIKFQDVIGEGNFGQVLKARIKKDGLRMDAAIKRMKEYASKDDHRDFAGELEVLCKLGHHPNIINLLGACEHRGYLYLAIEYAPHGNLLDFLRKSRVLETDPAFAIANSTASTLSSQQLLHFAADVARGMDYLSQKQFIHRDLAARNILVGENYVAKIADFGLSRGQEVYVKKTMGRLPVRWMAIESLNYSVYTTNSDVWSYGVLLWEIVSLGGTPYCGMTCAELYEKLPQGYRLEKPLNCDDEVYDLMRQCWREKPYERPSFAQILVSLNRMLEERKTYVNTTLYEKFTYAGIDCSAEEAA

`NC(=O)c1c(OCc2ccc3c(c2)CCO3)nsc1NC(=O)NCCCCN1CCCC1` [Compound T044, 3-((2,3-dihydrobenzofuran-5-yl)methoxy)-5-(3-(4-(pyrrolidin-1-yl)butyl)ureido)isothiazole-4-carboxamide]: the figures for the negative logarithm of the IC50 (pIC50) in experiment [1], in experiment [2] and in experiment [3] were 5.79, 5.00 and 6.89, respectively.
For the compound `COc1ccc(Cl)c(COc2nsc(NC(=O)NCCCCN3CCCC3)c2C(N)=O)c1F` [Compound T146], the negative-log IC50 (pIC50) was 6.13 in experiment [1], 4.58 in experiment [2] and 7.98 in experiment [3].
In the case of `CN1CCC(CCNC(=O)Nc2snc(OCc3cc(C(=O)NC4CC4)ccc3Cl)c2C(N)=O)CC1` [Compound T139, 3-[[2-chloro-5-(cyclopropylcarbamoyl)phenyl]methoxy]-5-[2-(1-methyl-4-piperidyl)ethylcarbamoylamino]isothiazole-4-carboxamide], the pIC50 in experiment [1] is 6.44; in experiment [2], 5.00; in experiment [3], 9.39.
For the compound `NC(=O)c1c(OCc2cc(C(=O)NC3CC3)ccc2F)nsc1NC(=O)NCCCN1CCN(C2CC2)CC1` [Compound T158, 3-[[5-(cyclopropylcarbamoyl)-2-fluoro-phenyl]methoxy]-5-[3-(4-cyclopropylpiperazin-1-yl)propylcarbamoylamino]isothiazole-4-carboxamide], the pIC50 is 5.27 in experiment [1], 5.01 in experiment [2] and 8.98 in experiment [3].
For `NC(=O)c1c(OCc2cccc(-n3cccn3)c2)nsc1NC(=O)NCCCCN1CCCC1` [Compound T068, 3-((3-(1H-pyrazol-1-yl)benzyl)oxy)-5-(3-(4-(pyrrolidin-1-yl)butyl)ureido)isothiazole-4-carboxamide], the pIC50 was 5.79 in experiment [1], 5.36 in experiment [2] and 6.77 in experiment [3].
For the compound `COc1ccc(COc2nsc(NC(=O)NCCCCN3CCCC3)c2C(N)=O)cn1` [Compound T033], the pIC50 was 5.84 in experiment [1], 4.26 in experiment [2] and 7.29 in experiment [3].
In the case of `NC(=O)c1c(OCc2cc(C(=O)NC3CC3)ccc2Cl)nsc1NC(=O)NCCCN1CC[C@H](F)C1` [Compound T166, 3-[[2-chloro-5-(cyclopropylcarbamoyl)phenyl]methoxy]-5-[3-[(3S)-3-fluoropyrrolidin-1-yl]propylcarbamoylamino]isothiazole-4-carboxamide], the pIC50 in experiment [1] was 5.76; in experiment [2], 4.81; in experiment [3] it was 9.35.
As to `CC(C)(C)[Si](C)(C)OCCCNC(=O)Nc1snc(OCc2cc(C(=O)NC3CC3)ccc2F)c1C(N)=O` [Compound T169, 5-[3-[tert-butyl(dimethyl)silyl]oxypropylcarbamoylamino]-3-[[5-(cyclopropylcarbamoyl)-2-fluoro-phenyl]methoxy]isothiazole-4-carboxamide], the pIC50 in experiment [1] is less than 4.22; in experiment [2] it was less than 4.22; in experiment [3], 7.79.
`COc1ccc(F)c(COc2nsc(NC(=O)NCCCN3CC[C@@H](F)C3)c2C(N)=O)c1F` [Compound T121, 3-[(2,6-difluoro-3-methoxy-phenyl)methoxy]-5-[3-[(3R)-3-fluoropyrrolidin-1-yl]propylcarbamoylamino]isothiazole-4-carboxamide]: the results for the pIC50 in experiment [1], in experiment [2] and in experiment [3] were 6.64, 4.76 and 7.40, respectively.
